{
  "source": "patent US20260125647A1",
  "about": "“AGE-MODULATING COMPOUNDS AND METHODS FOR MAKING AGE-MODULATED CELLS” (MEMORIAL SLOAN-KETTERING CANCER CENTER, priority 2023, published 2026)",
  "key": {"[1]": {"system": "PSC-derived neurons", "assay": "RNA-seq RNAge validation of age inducers in PSC-derived neurons", "format": "cell-based, human", "conditions": "24 h, relative to DMSO, Vinorelbine 10 μM, AGK-2 0.04 μM", "description": "Generation of human cortical neurons. Cortical neurons were generated by directed differentiation of human embryonic stem cells (H9; WA-09) maintained in E8 on vitronectin coated plates. […] After 24 h the E8 medium was replaced with E6 containing SB431542 (10 μM), LDN193189 (100 nM) and XAV939 ([…]). After three days the XAV939 was removed from the differentiation media and cells were cultured for an additional seven days in E6 containing SB431542 (10 μM), LDN193189 (100 nM). The neuroepithelium was maintained for an additional 10 days in neurobasal supplemented with N2 and B27. Media was changed daily throughout the differentiation. At DIV 20 the cultures were dissociated using Accutase to generate a single cell suspension and plated out for subsequent experiments in Neurobasal medium supplemented with B27, L-glutamine, BDNF, CAMP, ascorbic acid and GDNF (neural maintenance media). DAPT was also added to the culture medium from DIV20 to DIV30. Compounds for experimental validation of […]-based score. […] Reads were aligned to the hg19 Human transcripts using STAR (version 2.5.21b) using default parameters and resulting bam files were sorted and indexed using samtools. Gene counts were obtained using featureCounts (version 1.4.3) from sorted bam files using uniquely mapped reads. […] This score is calculated using the tissue-specific aging marker set Mk. […]"}, "[2]": {"system": "fetal human dermal fibroblasts (HDF-f)", "assay": "RNA-seq RNAge validation of age inducers in fetal fibroblasts", "format": "cell-based", "conditions": "24 h, relative to DMSO; for RNAge score (relative transcriptional age): Alvocidib 10 μM, 5-Iodotubercin 10 μM, Mitoxantrone 1.1 μM", "description": "Fibroblast maintenance and culture. Fibroblasts were maintained in DMEM-F12 containing GlutaMAX,15% heat inactivated FBS and 1× Pen/Strep and passaged using Trypsin. For validation of […] aging score by RNA-seq old (GM04204; Coriell) or young (HDF-f; […] Compounds for experimental validation of […]-based score. All validation experiments were performed after 24 h of compound treatment. For rejuvenation experiments in fibroblasts Mocetinostat (10 μM; Selleck […]), Resveratrol (0.37 μM; Selleck […]) and Radicicol (1.1 μM; Tocris 1589), DMSO (1:1000) and EtOH (1:1000; vehicle control for Radicicol) were applied to old primary fibroblasts (Coriell GM4204). Age induction experiments in young fibroblasts (HDF-f; ScienCell #2300) were performed with 5-Iodotubercin (10 μM; Selleck […]), Alvocidib (10 μM; Selleck […]) and Mitoxantrone (1.1 μM; Selleck […]) with DMSO (1:1000) used as a control. Compounds used for age induction experiments in PSC-derived neurons were: […] Selleck […]) with DMSO (1:1000) used as a control. RNA Extraction. Cell were harvested, lysed, and stored in Trizol (Life Technologies) until further processing. For primary frontal cortex or substantia nigra a total of 10 mg of brain tissue from was lysed in Trizol aided by a tissue dounce. For experimental validation […] compounds RNA was extracted by the core using […] Micro Kit (QIAGEN 1071023). In all other cases RNA was extracted using the Zymo Direct-zol RNA Microprep Kit according to the manufacturer's instructions. RNA-seq analysis. Reads were aligned to the hg19 Human transcripts using STAR (version 2.5.21b) using default parameters and resulting bam files were sorted and indexed using samtools. Gene counts were obtained using featureCounts (version 1.4.3) from sorted bam files using uniquely mapped reads. Genes with no expression counts in any sample were discarded. Differential gene expression analysis was performed using DESeq2 R package that normalize gene count data to transcription per million (TPM), and then detect differentially expressed genes (DEG) between Young and Old groups with ([…] score calculation. The aging score is applied on a gene expression test data where two conditions are compared for expression changes in the aging signature, group1 has n samples and group2 has m samples. For each gene in a tissue specific marker set Ĝk, we can calculate t-statistic between two groups based on Welch's two-sample t test as follow: where the normalizing factor Nk is the number of overlapping genes between the test dataset and Ĝk. The aging score, Aging scorek, represents the overall magnitude of expression difference between two sample groups based on the expression trends. This score is calculated using the tissue-specific aging marker set Mk. It indicates the aging difference between the two groups as well as distinguishes which group is older. To mitigate the influence of a small number of markers with large changes gene expression between group1 and group2 of the test data (i.e. large t-score values), we introduced the “Percentage score” as a measure of agreement between the expression trends of the aging markers and the given dataset. The calculation of the Percentage score involves the product of each gene between Tk and Mk: Ai=ti×Li, where i∈Ĝk. A positive Ai indicates a consistent expression change of gene i in both the aging signature and in the comparison between group1 and group2 in the test dataset. Conversely, a negative Ai indicates an opposite expression trend. Therefore, the “Percentage score” is defined as: […]"}, "[3]": {"system": "HDF fibroblasts", "assay": "Hallmarks of age by high content microscopy in fibroblasts", "format": "cell-based, human", "conditions": "24 h", "description": "Compounds for experimental validation of L1000-based score. All validation experiments were performed after 24 h of compound treatment. For rejuvenation experiments in fibroblasts Mocetinostat (10 μM; Selleck S1396), Resveratrol (0.37 μM; Selleck S1396) and Radicicol (1.1 μM; Tocris 1589), DMSO (1:1000) and EtOH (1:1000; vehicle control for Radicicol) were applied to old primary fibroblasts (Coriell GM4204). Age induction experiments in young fibroblasts (HDF-f; ScienCell #2300) were performed with 5-Iodotubercin (10 μM; Selleck S8314), Alvocidib (10 μM; Selleck S1230) and Mitoxantrone (1.1 μM; Selleck S2485) with DMSO (1:1000) used as a control. Compounds used for age induction experiments in PSC-derived neurons were: Fludarabine (10 μM; Selleck S1491) Vinorelbine (10 μM; sc-205885) and AGK-2 (0.04 μM; Selleck S7577) with DMSO (1:1000) used as a control.\nAssaying Hallmarks of Age by high content microscopy. HDF fibroblasts were plated at a density of 4500/cm^2 and cultured for 48 h before drug treatment. Neurons were plated at a density of 100,000/cm^2 and cultured for 12 days before the application of candidate age inducers. After 24 h of treatment culture wells were washed 2× in PBS then fixed with 4% paraformaldehyde. For immunocytochemistry cells were permeabilized in PBS+0.3% Triton and blocked in 5% normal goat serum. All antibody primary incubations were performed overnight at 4 degrees and secondary antibodies at RT for 1h. Primary antibodies used in this study were: BAG3 (abcam; ab47124), CAV1 (Thermo; MA3-600), H3K9me3 (abcam; ab176916), LAP2 (BD Bioscience; 611000), p21 (CST; 2947), yH2AX (EMD Millipore; 05-636). Immunocytochemistry images were acquired using an Operetta (PerkinElmer, Waltham, MA) microscope and quantified using the harmony high content analysis software. For both fibroblasts and neurons 4 independent batches of cells were assayed in triplicate (n=12). Fluorescence intensity was normalized to DMSO, and ordinary one-way ANOVA used to compare test conditions to the DMSO control (Prism 9.5.1). […]"}, "[4]": {"system": "old primary fibroblasts (Coriell GM04204)", "assay": "RNA-seq RNAge validation of rejuvenating compounds in old primary fibroblasts", "format": "cell-based, human", "conditions": "0.37 μM, 24 h", "description": "Fibroblast maintenance and culture. Fibroblasts were maintained in DMEM-F12 containing GlutaMAX,15% heat inactivated FBS and 1× Pen/Strep and passaged using Trypsin. For validation of […] aging score by RNA-seq old (GM04204; Coriell) or young (HDF-f; […] Compounds for experimental validation of […]-based score. All validation experiments were performed after 24 h of compound treatment. For rejuvenation experiments in fibroblasts Mocetinostat (10 μM; Selleck […]), Resveratrol (0.37 μM; Selleck […]) and Radicicol (1.1 μM; Tocris 1589), DMSO (1:1000) and EtOH (1:1000; vehicle control for Radicicol) were applied to old primary fibroblasts (Coriell GM4204). Age induction experiments in young fibroblasts (HDF-f; ScienCell #2300) were performed with 5-Iodotubercin (10 μM; Selleck […]), Alvocidib (10 μM; Selleck […]) and Mitoxantrone (1.1 μM; Selleck […]) with DMSO (1:1000) used as a control. Compounds used for age induction experiments in PSC-derived neurons were: […] Selleck […]) with DMSO (1:1000) used as a control. RNA Extraction. […] Reads were aligned to the hg19 Human transcripts using STAR (version 2.5.21b) using default parameters and resulting bam files were sorted and indexed using samtools. Gene counts were obtained using featureCounts (version 1.4.3) from sorted bam files using uniquely mapped reads. […] This score is calculated using the tissue-specific aging marker set Mk. […]"}},
  "data": [
    {"smiles": "N#C/C(=C\\c1ccc(-c2cc(Cl)ccc2Cl)o1)C(=O)Nc1cccc2ncccc12", "note": "[AGK-2]", "values": [
      {"measurement": "RNAge score / aging scores across the aging signatures", "setting": "[1]", "value": "no obvious transcriptional effect or impact"}
    ]},
    {"smiles": "CN1CC[C@H](c2c(O)cc(O)c3c(=O)cc(-c4ccccc4Cl)oc23)[C@H](O)C1", "note": "[Alvocidib]", "values": [
      {"measurement": "pattern of induction of the RNAge subscores", "setting": "[2]", "value": "very similar pattern of induction"},
      {"measurement": "RNAge score (relative transcriptional age)", "setting": "[2]", "value": "increased"},
      {"measurement": "nuclear area", "setting": "[3]", "value": "increase"},
      {"measurement": "nuclear roundness", "setting": "[3]", "value": "loss"},
      {"measurement": "BAG3 fluorescence intensity", "setting": "[3]; relative to DMSO", "value": "decreased"},
      {"measurement": "LAP2 fluorescence intensity", "setting": "[3]; relative to DMSO", "value": "loss"}
    ]},
    {"smiles": "Nc1ncnc2c1c(I)cn2[C@@H]1O[C@H](CO)[C@@H](O)[C@H]1O", "note": "[5-iodotubercin]", "values": [
      {"measurement": "pattern of induction of the RNAge subscores", "setting": "[2]", "value": "very similar pattern of induction"},
      {"measurement": "RNAge score (relative transcriptional age)", "setting": "[2]", "value": "increased"},
      {"measurement": "nuclear area", "setting": "[3]", "value": "increase"},
      {"measurement": "nuclear roundness", "setting": "[3]", "value": "loss"},
      {"measurement": "BAG3 fluorescence intensity", "setting": "[3]; relative to DMSO", "value": "decreased"},
      {"measurement": "LAP2 fluorescence intensity", "setting": "[3]; relative to DMSO", "value": "loss"}
    ]},
    {"smiles": "Oc1ccc(C=Cc2cc(O)cc(O)c2)cc1", "note": "[Resveratrol]", "values": [
      {"measurement": "fibroblast aging score bubble size (percent of genes that change in the expected direction)", "setting": "[4]", "value": "very small bubble size"}
    ]},
    {"smiles": "CCC1=C[C@@H]2CN(C1)Cc1c([nH]c3ccccc13)[C@@](C(=O)OC)(c1cc3c(cc1OC)N(C)[C@H]1[C@@](O)(C(=O)OC)[C@H](OC(C)=O)[C@]4(CC)C=CCN5CC[C@]31[C@@H]54)C2", "note": "[Vinorelbine]", "values": [
      {"measurement": "RNAge score / aging scores across the aging signatures", "setting": "[1]", "value": "only a slight, albeit consistent, induction"}
    ]},
    {"smiles": "O=C1c2c(O)ccc(O)c2C(=O)c2c(NCCNCCO)ccc(NCCNCCO)c21", "note": "[Mitoxantrone]", "values": [
      {"measurement": "pattern of induction of the RNAge subscores", "setting": "[2]", "value": "only showed induced aging in the ‘Pan’ and ‘pF’ aging categories"},
      {"measurement": "RNAge score (relative transcriptional age)", "setting": "[2]", "value": "increased"},
      {"measurement": "nuclear roundness", "setting": "[3]", "value": "loss"},
      {"measurement": "BAG3 fluorescence intensity", "setting": "[3]; relative to DMSO", "value": "decreased"},
      {"measurement": "H3K9me3 immunoreactivity", "setting": "[3]; relative to DMSO", "value": "decreased"},
      {"measurement": "LAP2 fluorescence intensity", "setting": "[3]; relative to DMSO", "value": "loss"},
      {"measurement": "p21 immunoreactivity", "setting": "[3]; relative to DMSO", "value": "increased"},
      {"measurement": "γH2AX immunoreactivity", "setting": "[3]; relative to DMSO", "value": "increased"}
    ]}
  ]
}
